Where two headings read alike, the source gives them in different places.
Columns and labels:
[1] = test system: IL-4 stimulated expression of CD23 in human Ramos B cells (JAK-1 and JAK-3); assay: Assay for Ramos B-Cell Line Stimulated with IL-4 (CD23 upregulation, FACS); format: cell-based; conditions: read-out: IC50, Example 41
Procedure, shortened: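 Log-phase Ramos cells, 1 h compound pre-incubation at 37 °C; IL-4 50 units/mL final, 20-24 h; CD23-PE stain, FACS; IC50.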

[2] = test system: Primary human T-cells; assay: Primary Human T-Cell Proliferation Assay Stimulated with IL-2 (CellTiter-Glo); format: cell-based; conditions: read-out: IC50, Example 42
Procedure, shortened: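 Peripheral blood T-cells pre-activated with anti-CD3/anti-CD28 and IL-2 were washed free of IL-2, then cultured with compound plus IL-2 for 72 hours at 37° C, duplicate wells. Viability read as ATP by CellTiter-Glo luminescence; IC50 reported.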

[3] = Ramos B cells stimulated with IL-4, CD23 expression by FACS
[4] = primary human T-cells stimulated with IL-2, proliferation
[5] = Ramos B-cell line stimulated with IL-4, CD23 expression by FACS
[6] = primary human T-cell proliferation stimulated with IL-2

Compound | IC50 [1, 3] | IC50 [2, 4] | IC50 [1, 5] | IC50 [2, 6]
N#CCn1ccc2cc(Nc3nc(Nc4cccc(S(N)(=O)=O)c4)ncc3F)ccc21 [IX-5, N2-(3-Aminosulfonylphenyl)-N4-(1-cyanomethyleneindol-5-yl)-5-fluoro-2,4-pyrimidinediamine] | 29.6 nM | 73.8 nM | – | –
Cc1cc(Nc2nc(Nc3ccc(S(N)(=O)=O)cc3)ncc2F)ccc1OC(C)C(N)=O (racemic) [Compound I-119, Racemic N4-[4-(1-Aminocarbonyl)ethoxy-3-methyl]phenyl-N2-(4-aminosulfonyl)phenyl-5-fluoro-2,4-pyrimidinediamine] | – | – | 211 nM | 2440 nM
NS(=O)(=O)c1cccc(Nc2ncc(F)c(Nc3ccc(OCC(F)(F)F)cc3)n2)c1 [VI-47, N2-(3-Aminosulfonylphenyl)-5-fluoro-N4-(4-trifluoromethylmethyleneoxyphenyl)-2,4-pyrimidinediamine] | 82.8 nM | 259 nM | – | –
Cc1ccc(Nc2ncc(F)c(Nc3cc(C)c(OC(C)C(N)=O)c(C)c3)n2)cc1S(N)(=O)=O (racemic) [Compound I-124, Racemic N4-[4-(1-Aminocarbonyl)ethoxy-3,5-dimethyl]phenyl-N2-(3-aminosulfonyl-4-methyl)phenyl-5-fluoro-2,4-pyrimidinediamine] | – | – | 102 nM | 342 nM
Cc1ccc(Nc2ncc(F)c(Nc3ccc4c(c3)c(CC#N)cn4C)n2)cc1S(N)(=O)=O [IX-20] | 122 nM | 1790 nM | – | –
Cc1ccc(Nc2ncc(F)c(Nc3ccc(OCc4cccnc4)cc3)n2)cc1S(N)(=O)=O [Compound I-189, N2-(3-Aminosulfonyl-4-methylphenyl)-5-fluoro-N4-[4-(3-pyridinyl)methyleneoxyphenyl]-2,4-pyrimidinediamine] | – | – | 137 nM | 143 nM
Cc1cnc(Nc2cccc(S(N)(=O)=O)c2)nc1Nc1ccc(OCc2ccccn2)cc1 [Compound I-179, N2-(3-Aminosulfonylphenyl)-5-methyl-N4-[4-(2-pyridinyl)methyleneoxyphenyl]-2,4-pyrimidinediamine] | – | – | 24.3 nM | 11.8 nM
N#CCOc1ccc(Nc2nc(Nc3cccc(S(N)(=O)=O)c3)ncc2F)cc1F [Compound I-12, N2-(3-Aminosulfonylphenyl)-5-fluoro-N4-(4-cyanomethyleneoxy-3-fluorophenyl)-2,4-pyrimidinediamine] | – | – | 36.9 nM | 59.7 nM
Cc1cc(Nc2nc(Nc3ccc(S(N)(=O)=O)cc3)ncc2F)ccc1OCC(N)=O [Compound I-113, N4-(4-Aminocarbonylmethoxy-3-methyl)phenyl-N2-(4-aminosulfonyl)phenyl-5-fluoro-2,4-pyrimidinediamine] | – | – | 165 nM | 1690 nM
Cc1cc(COc2ccc(Nc3nc(Nc4ccc(C)c(S(N)(=O)=O)c4)ncc3F)cc2)[nH]n1 [Compound I-197, N2-(3-Aminosulfonyl-4-methylphenyl)-5-fluoro-N4-[4-(3-methyl-(1H)-pyrazol-5-yl)methyleneoxyphenyl]-2,4-pyrimidinediamine] | – | – | 135 nM | 329 nM
Cc1ccc(Nc2nc(Nc3ccc(S(N)(=O)=O)cc3)ncc2F)cc1OCC(=O)N1CCOCC1 [Compound I-209, N2-(4-Aminosulfonylphenyl)-5-fluoro-N4-[4-methyl-3-(2-morpholinocarbonylmethyleneoxy)phenyl]-2,4-pyrimidinediamine] | – | – | 580 nM | 4470 nM
CNC(=O)N1CCCc2cc(Nc3nc(Nc4ccc(C)c(S(N)(=O)=O)c4)ncc3F)ccc21 [VII-19, N2-(3-Aminosulfonyl-4-methylphenyl)-5-fluoro-N4-[1-(methylaminocarbonyl)-1,2,3,4-tetrahydroquin-6-yl]-2,4-pyrimidinediamine] | 87.5 nM | 514 nM | – | –
CN1C(=O)CSc2ccc(Nc3nc(Nc4cccc(S(=O)(=O)N5CCCCC5)c4)ncc3F)cc21 [VII-50, 5-Fluoro-N4-(4-methyl-3-oxo-benz[1,4]thiazin-6-yl)-N2-(3-pipendinosulfonylphenyl)-2,4-pyrimidinediamine] | 350 nM | 856 nM | – | –
CN1CCN(c2ccc(Nc3ncc(F)c(Nc4ccc(OCC#N)cc4)n3)cc2S(N)(=O)=O)CC1 [Compound I-9, N2-[3-Aminosulfonyl-4-(4-methylpiperazin-1-yl)phenyl]-5-fluoro-N4-(4-cyanomethyleneoxyphenyl)-2,4-pyrimidinediamine] | – | – | 233 nM | 485 nM
NS(=O)(=O)c1ccc(Nc2ncc(F)c(Nc3ccc(OCc4ccccn4)cc3)n2)cc1 [Compound I-163, N2-(4-Aminosulfonylphenyl)-5-fluoro-N4-[4-(2-pyridinyl)methyleneoxyphenyl]-2,4-pyrimidinediamine] | – | – | 177 nM | 439 nM
N2-(3-Aminosulphonylphenyl)-5-fluoro-N4-[4-(3-pyridinylmethyl)benzo[1,4]oxazin-7-yl]-2,4-pyrimidinediamine [VII-56] | 185 nM | 1280 nM | – | –
COc1ccc(Nc2nc(Nc3cc(C)c4c(c3)S(=O)(=O)NC=N4)ncc2F)cc1Cl [VIII-3, N4-(3-Chloro-4-methoxyphenyl)-5-fluoro-N2-(5-methyl-2H-1,1-dioxo-1,2,4-benzothiadiazin-7-yl)-2,4-pyrimidinediamine] | 153 nM | 1840 nM | – | –
N2-[3-Aminosulfonyl-4-(4-methylpiperazine-1-yl)phenyl]-N4-(3-cyanomethylene-1H-indol-6-yl)-5-fluoro-2,4-pyrimidinediamine [IX-17] | 108 nM | 815 nM | – | –
Cc1ccc(Nc2ncc(F)c(Nc3ccc4c(ccn4CC#N)c3)n2)cc1S(N)(=O)=O [IX-8, N2-(3-Aminosulfonyl-4-methylphenyl)-N4-(1-cyanomethyleneindol-5-yl)-5-fluoro-2,4-pyrimidinediamine] | 46.4 nM | 124 nM | – | –
Cc1ccc(Nc2ncc(F)c(Nc3ccc(OC(C)(C)C(N)=O)cc3)n2)cc1S(N)(=O)=O [Compound I-127, N4-[4-(1-Aminocarbonyl-1-methyl)ethoxy]phenyl-N2-(3-aminosulfonyl-4-methyl)phenyl-5-fluoro-2,4-pyrimidinediamine] | – | – | 233 nM | 510 nM
Cc1ccc(Nc2ncc(F)c(Nc3ccc(OCc4ccccn4)cc3)n2)cc1S(N)(=O)=O [Compound I-160, N2-(3-Aminosulfonyl-4-methylphenyl)-5-fluoro-N4-[4-(2-pyridinyl)methyleneoxyphenyl]-2,4-pyrimidinediamine] | – | – | 130 nM | 248 nM
CNC(=O)N1CCc2ccc(Nc3nc(Nc4ccc(C)c(S(N)(=O)=O)c4)ncc3F)cc2C1 [VII-17, N2-(3-Aminosulfonyl-4-methylphenyl)-5-fluoro-N4-[2-(methylaminocarbonyl)-1,2,3,4-tetrahydroisoquin-7-yl]-2,4-pyrimidinediamine] | 353 nM | 2100 nM | – | –
Cc1cc(Nc2nc(Nc3ccc(S(N)(=O)=O)cc3)ncc2F)cc(C)c1OC(C)C(N)=O (racemic) [Compound I-122, Racemic N4-[4-(1-Aminocarbonyl)ethoxy-3,5-dimethyl]phenyl-N2-(4-aminosulfonyl)phenyl-5-fluoro-2,4-pyrimidinediamine] | – | – | 292 nM | 3500 nM
N2-(3-Aminosulphonylphenyl)-5-fluoro-N4-[4-(3-pyridinylmethyl)benzo[1,4]oxazin-7-yl]-2,4-pyrimidinediamine [VII-55] | 184 nM | 599 nM | – | –
CNS(=O)(=O)c1cc(Nc2ncc(F)c(Nc3ccc(-c4ccccn4)c(OCF)c3)n2)ccc1C [Compound I-173, 5-Fluoro-N2-[3-N-(methyl)aminosulfonyl-4-methylphenyl]-N4-[4-(2-pyridinyl)-3-fluoromethyleneoxyphenyl]-2,4-pyrimidinediamine] | – | – | 115 nM | 907 nM
Cc1ccc(Nc2ncc(F)c(Nc3ccc(OCc4ccncc4)cc3)n2)cc1S(N)(=O)=O [Compound I-194, N2-(3-Aminosulfonyl-4-methylphenyl)-5-fluoro-N4-[4-(4-pyridinyl)methyleneoxyphenyl]-2,4-pyrimidinediamine] | – | – | 28.6 nM | 99.3 nM
NS(=O)(=O)c1cccc(Nc2ncc(F)c(Nc3ccc(OCc4cccnc4)cc3)n2)c1 [Compound I-188, N2-(3-Aminosulfonylphenyl)-5-fluoro-N4-[4-(3-pyridinyl)methyleneoxyphenyl]-2,4-pyrimidinediamine] | – | – | 42.7 nM | 64.2 nM
CN(C)C(=O)C1Cc2cc(Nc3nc(Nc4ccc(Cl)c(S(N)(=O)=O)c4)ncc3F)ccc2O1 (racemic) [VII-27, Racemic N2-(3-Aminosulfonyl-4-chlorophenyl)-N4-[2-(N,N-dimethylaminocarbonyl)-2,3-dihydrobenzofuran-5-yl]-5-fluoro-2,4-pyrimidinediamine] | 413 nM | 2050 nM | – | –
CCN(CC)CCNS(=O)(=O)c1ccc(Nc2ncc(F)c(Nc3cccc(OCc4cccnc4)c3)n2)cc1 [Compound I-186, N2-[4-(2-N,N-Diethylaminoethyl)aminosulfonylphenyl)-5-fluoro-N4-[3-(3-pyridinyl)methyleneoxyphenyl]-2,4-pyrimidinediamine] | – | – | 188 nM | 1080 nM
Cc1cc(Nc2nc(Nc3cccc(S(N)(=O)=O)c3)ncc2F)ccc1OC(C)C(N)=O (racemic) [Compound I-120, Racemic N4-[4-(1-Aminocarbonyl)ethoxy-3-methyl]phenyl-N2-(3-aminosulfonyl)phenyl-5-fluoro-2,4-pyrimidinediamine] | – | – | 201 nM | 280 nM

Source: patent publication US11827628B2, “Compositions and methods for inhibition of the JAK pathway” (Rigel Pharmaceuticals, Inc., priority 2005, dated 2023)
